Results reported in PubChem BioAssay (NCI).
Where “and” joins values, the source holds several entries; their conditions need not be identical. Equal values may be shown once.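 Tested at 5 concentrations; 48 h exposure; 96-well plates; endpoints linearly interpolated, else capped at highest concentration. Abbreviation: GI50, concentration required for 50% inhibition of growth. TGI is the concentration that stops growth completely.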

Assays:
Assay in all cases: NCI-60 cell line screen, 48 h
M14 melanoma = tested on: M14 melanoma
OVCAR-3 ovarian = tested on: OVCAR-3 ovarian
NCI-H23 lung = tested on: NCI-H23 lung
MCF7 breast = tested on: MCF7 breast
RXF 393 renal = tested on: RXF 393 renal
SNB-19 CNS = tested on: SNB-19 CNS
SN12C renal = tested on: SN12C renal
HOP-62 NSCLC = tested on: HOP-62 NSCLC
EKVX NSCLC = tested on: EKVX NSCLC
UACC-62 melanoma = tested on: UACC-62 melanoma

Structure (SMILES)	GI50 (M14 melanoma)	TGI (M14 melanoma)	GI50 (OVCAR-3 ovarian)	TGI (OVCAR-3 ovarian)	GI50 (NCI-H23 lung)	TGI (NCI-H23 lung)	GI50 (MCF7 breast)	TGI (MCF7 breast)	GI50 (RXF 393 renal)	TGI (RXF 393 renal)	GI50 (SNB-19 CNS)	TGI (SNB-19 CNS)	GI50 (SN12C renal)	TGI (SN12C renal)	GI50 (HOP-62 NSCLC)	TGI (HOP-62 NSCLC)	GI50 (EKVX NSCLC)	TGI (EKVX NSCLC)	GI50 (UACC-62 melanoma)	TGI (UACC-62 melanoma)
O=c1ccn(C2OC(CO)C(O)C2F)c(=O)[nH]1 (configuration not stated)	> 1000 µM	> 1000 µM	> 1000 µM	> 1000 µM	> 1000 µM	> 1000 µM	> 1000 µM	> 1000 µM	> 1000 µM	> 1000 µM	> 1000 µM	> 1000 µM	> 1000 µM	> 1000 µM	> 1000 µM	> 1000 µM	> 1000 µM	> 1000 µM	> 1000 µM	> 1000 µM
CC12OC(c3ccccc3)=CC(c3ccc(Cl)cc3)=C1C(c1ccccc1)=CC2=O (configuration not stated)	28.2 µM	83 µM	80 µM	> 100 µM	41.5 µM	> 100 µM	60.8 µM	> 100 µM	19.1 µM	> 100 µM	> 100 µM	> 100 µM	> 100 µM	> 100 µM	> 100 µM	> 100 µM	> 100 µM	> 100 µM	49.4 µM	> 100 µM
Cc1ccccc1NC(=O)N/C(N)=N/c1nc(-c2cccc([N+](=O)[O-])c2)cs1	2.15 µM	19.6 µM	1.72 µM	4.41 µM	1.94 µM	6.49 µM	1.47 µM	> 100 µM	1.78 µM	4.33 µM	3.29 µM	15.8 µM	3.37 µM	30.5 µM	1.92 µM	7.47 µM	1.94 µM	> 100 µM	2.14 µM	12.8 µM
COc1cc(C(=O)/C(C)=C/c2c[nH]c3ccccc23)cc(OC)c1OC	0.00338 µM	1.89 µM	0.00334 µM	0.0107 µM	0.00516 µM	> 100 µM	0.00357 µM	> 100 µM	1.81 µM	> 100 µM	0.00406 µM	> 100 µM	–	> 100 µM	0.00541 µM	11.9 µM	0.0053 µM	> 100 µM	–	14.1 µM
CC(=O)CC(=O)Nc1ccc2ccccc2c1	–	> 100 µM	–	> 100 µM	–	> 100 µM	–	> 100 µM	–	> 100 µM	–	> 100 µM	–	> 100 µM	–	> 100 µM	–	> 100 µM	–	> 100 µM
COC(=O)CCc1cc(OC)c2c(c1)C(C(=O)OC)C(c1ccc(OC)c(OC)c1)O2 (configuration not stated)	> 100 µM and 11.6 µM	> 100 µM	> 100 µM and 13.9 µM	> 100 µM	–	> 100 µM	–	> 100 µM	–	> 100 µM	> 100 µM and 15.8 µM	> 100 µM	–	> 100 µM	> 100 µM and 36.6 µM	> 100 µM	–	> 100 µM	> 100 µM and 16.7 µM	> 100 µM
CCOC(=O)C(Cc1c[nH]c2ccc(N)cc12)(NC(C)=O)C(=O)OCC	–	> 1000 µM	> 1000 µM	> 1000 µM	> 1000 µM	> 1000 µM	> 1000 µM	> 1000 µM	> 1000 µM	> 1000 µM	> 1000 µM	> 1000 µM	> 1000 µM	> 1000 µM	> 1000 µM	> 1000 µM	> 1000 µM	> 1000 µM	> 1000 µM	> 1000 µM
